One molecule from patent US11130960B2, “Methods for conferring or enhancing herbicide resistance on plants and/or alga with protoporphyrinogen oxidase variants” (FARM HANNONG CO., LTD., priority 2014, dated 2021) can be followed below.

The assay relates to Halothece sp. PCC 7418 strain. The assay can be described thus: Herbicide resistance test of Halothece sp. PCC 7418 strain in CRBIP medium. Particulars: 8 days after treatment, CRBIP Medium 1538. The assay is classed as cell-based. As for the experimental part: Halothece sp. PCC 7418 strain was cultured in CRBIP Medium 1538 (Institut Pasteur, France). CRBIP Medium 1538 is a mixed medium of ASNIII and Turks Island Salts 4× at a ratio of 1:1(v/v), and ASNIII medium was composed of 25.0 g of NaCl, 3.5 g of MgSO4.7H2O, 2.0 g of MgCl2.6H2O, 0.5 g of KCl, 0.5 g of CaCl2.2H2O, 0.75 g of NaNO3, 0.02 g of K2HPO4.3H2O, 0.04 g of NaCO3, 2.5 ml of ammonium iron(III) citrate/citric acid monohydrate solution [a mixture of 300 mg of ammonium iron(III) citrate, 300 mg of citric acid monohydrate, and 250 ml of distilled water], 2.5 ml of magnesium titriplex dihydrate solution [a mixture of 0.1 g of Mg EDTA and 500 ml of distilled water], 1 ml of trace metal A5+Co [a mixture of 2.86 g of H3BO3, 1.81 g of MnCl2.4H2O, 0.222 g of ZnSO4.7H2O, 0.39 g of NaMoO4.2H2O, 0.079 g of CuSO4.5H2O, 0.049 g of Co(NO3)2.6H2O and 1000 ml of distilled water], and 1000 ml of distilled water. Turks Island Salts 4× was composed of 112 g of NaCl, 2.68 g of KCl, 22 g of MgCl2.6 H2O, 27.7 g of MgSO4.7 H2O, 5.8 g of CaCl2.2 H2O, and 1000 ml of distilled water. ASNIII medium and Tursk Island Salts 4× were autoclaved at 120° C. for 20 minutes, respectively and then mixed at a ratio of 1:1(v/v).
5 ml of the above culture medium was added to a test tube, and 2 or 10 μM of Tiafenacil was added thereto or not. The seed-cultured Halothece sp. […]

Molecules are shown by their SMILES.

As for `COC(=O)CCNC(=O)C(C)Sc1cc(-n2c(=O)cc(C(F)(F)F)n(C)c2=O)c(F)cc1Cl` (stereo not shown) [Tiafenacil], the “concentration at which growth of the strain was maintained” value worked out at 10 µM.
